What was measured:
[1] = tested on: Zucker Diabetic Fatty (ZDF) rats (ZDF/Crl-Lepr^fa); assay: Oral glucose tolerance test in overnight fasted 15-weeks old male ZDF rats (highly insulin-resistant model); assay type: in vivo, rat; conditions: single oral dose 30 min before oral glucose load 2 g/kg, Cpd. A 3 mg/kg, combination at the same doses, versus vehicle
Protocol: According to a second example an oral glucose tolerance test is performed in overnight fasted 15-weeks old male Zucker Diabetic Fatty (ZDF) rats (ZDF/Crl-Lepr^fa). This aged ZDF rats serve as a highly insulin-resistant animal model. A pre-dose blood sample is obtained by tail bleed. Blood glucose is measured with a glucometer, and the animals are randomized for blood glucose (n=5/group). […] The animals receive an oral glucose load (2 g/kg) 30 min after compound administration. Blood glucose is measured in tail blood 30 min, 60 min, 90 min, 120 min, and 180 min after the glucose challenge. Glucose excursion is quantified by calculating the reactive glucose AUC. The data are presented as mean±SEM. The two-sided unpaired Student t-test is used for statistical comparison of the control group and the active groups as well as between active groups.

[2] = tested on: Zucker Diabetic Fatty (ZDF) rats (ZDF/Crl-Lepr^fa); assay: Oral glucose tolerance test in overnight fasted 9-weeks old male ZDF rats; assay type: in vivo, rat; conditions: 1st Example, FIG. 1; single oral dose 30 min before oral glucose load 2 g/kg; Cpd. A 3 mg/kg, Cpd. B 100 mg/kg, combination at the same doses; versus vehicle
Protocol: According to a first example an oral glucose tolerance test is performed in overnight fasted 9-weeks old male Zucker Diabetic Fatty (ZDF) rats (ZDF/Crl-Lepr^fa). A pre-dose blood sample is obtained by tail bleed. Blood glucose is measured with a glucometer, and the animals are randomized for blood glucose (n=5/group). […] The animals receive an oral glucose load (2 g/kg) 30 min after compound administration. Blood glucose is measured in tail blood 15 min, 30 min, 60 min, and 90 min after the glucose challenge. Glucose excursion is quantified by calculating the reactive glucose AUC. The data are presented as mean±SEM. The two-sided unpaired Student t-test is used for statistical comparison of the control group and the active groups as well as between active groups.

[3] = Excretion route of BI 1356 at therapeutic oral dose levels; assay type: in vivo

For `CC#CCn1c(N2CCC[C@@H](N)C2)nc2c1c(=O)n(Cc1nc(C)c3ccccc3n1)c(=O)n2C` [Cpd. A, 1-[(4-methyl-quinazolin-2-yl)methyl]-3-methyl-7-(2-butyn-1-yl)-8-(3-(R)-amino-piperidin-1-yl)-xanthine], the “reduction of glucose excursion (reactive glucose AUC)” value (shortened to “reduction of glucose excursion”) ([1]; 2nd Example, FIG. 2, Cpd. B 30 mg/kg) was 1%, the “reduction of glucose excursion” value ([1]; 3rd Example, FIG. 3, Cpd. B 10 mg/kg) was 1% and the “reduction of glucose excursion” value [2] was 49%. The “excretion via the kidney” value [3] was < 7 % of the administered oral dose.
